Source: PMC12077149, “Evolution of PqsE as a Pseudomonas aeruginosa-specific regulator of LuxR-type receptors: insights from Pseudomonas and Burkholderia” (mBio, 2025)

Tests used:
CepR [1] = target: T1, CepR (Burkholderia cepacia, UniProt Q9AM51); test: protein solubilization in E. coli, SDS-PAGE; assay type: cell-based; details: AHL added at induction
T1 construct: gene CO711_26440; untagged full-length, in E. coli (arabinose-inducible with pcepI-luxCDABE reporter; pET-DUET for solubility)

HhqE^Bc [2] = system: T2, HhqE^Bc; test: thiol release with Ellman's reagent, A412; assay type: biochemical, Burkholderia cepacia; details: 0.1 M Tris-HCl pH 8.0, 2 mM DTNB; 2 µM enzyme; substrate up to 1 mM
T2 construct: 6xHis-tagged, E. coli BL21(DE3), Ni-NTA and SEC; monomer (~32 kDa by SEC)
Text: thiol release with Ellman's reagent, A412 on HhqE^Bc

CepR [3] = target: T1, CepR; test: E. coli pcepI-lux reporter; protein solubilization; assay type: cell-based; details: 10 µM AHL in reporter; agonist
HhqE^Bc [4] = system: T2, HhqE^Bc; test: fluorescence hydrolysis assay (ex […] / em […] nm); assay type: biochemical, Burkholderia cepacia; details: 50 mM Tricine, 0.01% Triton X-100; 2 µM enzyme; substrate up to 8 µM

T1 sequence (Q9AM51 entry or part of it): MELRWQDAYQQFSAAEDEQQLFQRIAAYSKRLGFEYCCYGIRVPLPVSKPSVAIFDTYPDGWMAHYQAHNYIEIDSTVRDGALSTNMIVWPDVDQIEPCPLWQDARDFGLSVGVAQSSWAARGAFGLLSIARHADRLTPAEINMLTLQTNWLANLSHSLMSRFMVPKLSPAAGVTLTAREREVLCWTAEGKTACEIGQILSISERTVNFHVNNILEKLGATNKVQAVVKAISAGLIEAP

How did the “protein solubilization in E. coli, SDS-PAGE” value (CepR [1]) turn out when `CCCCCCCCCC(=O)CC(=O)N[C@H]1CCOC1=O` [3OC12HSL] was run?
Its value is “C6HSL, C8HSL, C10HSL, and 3OC12HSL—were sufficient for the solubilization of CepR”.

With `CC(=O)CC(=O)SCCNC(=O)CCNC(=O)[C@H](O)C(C)(C)COP(=O)(O)OP(=O)(O)OC[C@H]1O[C@@H](n2cnc3c(N)ncnc32)[C@H](O)[C@@H]1OP(=O)(O)O` [Acetoacetyl-CoA] as the compound, how does the Km (HhqE^Bc [2]) read?
Its Km is 7.5 ± 0.4 mM.

With `CCCCCC(=O)N[C@H]1CCOC1=O` [C6HSL] as the compound, how does the “protein solubilization in E. coli, SDS-PAGE” value (CepR [1]) read?
Its value is “C6HSL, C8HSL, C10HSL, and 3OC12HSL—were sufficient for the solubilization of CepR”.

Which “E. coli pcepI-lux reporter; protein solubilization” value (CepR [3]) does the source give for `CCCCCCCC(=O)N[C@H]1CCOC1=O` [C8HSL] here?
Its value is “CepR responded to its cognate ligand C8HSL and, to a lesser extent, C10HSL”.

How did the “E. coli pcepI-lux reporter; protein solubilization” value (CepR [3]) turn out when `CCCCCCCCCC(=O)N[C@H]1CCOC1=O` [C10HSL] was run?
Its value is “CepR responded to its cognate ligand C8HSL and, to a lesser extent, C10HSL”.

`CCCC(=O)Oc1ccc2c(C)cc(=O)oc2c1` [MU-butyrate] was tested. Which Km (HhqE^Bc [4]) did it give?
Its Km is 0.00016 mM.
